Measurements as given in patent US7906551B2 (Rottapharm S.p.A., priority 2006, dated 2011).
Like-named read-outs stand apart in the source and are kept apart here.

What was measured:
[1] = tested on: rat model of hyperalgesia induced by Zymosan; experiment: Zymosan-induced hyperalgesia (Randal-Selitto); assay type: in vivo; conditions: oral, 3 mg/Kg
Description: (§1) Male Swiss albino mice (23-25 g) and Sprague Dawley or Wistar rats (150-200 g) were used. The animals were fed a standard laboratory diet and tap water ad libitum and kept at 23±1° C. with a 12 h light/dark cycle, light on at 7 a.m.
(§2) The interplantar injection of Zymosan-induced mechanical hyperalgesia may be used as a model of inflammatory pain (Meller, Neuropharmacology, 1994, 33, 1471-1478). In this model, typically a male Sprague-Dawely or Wistar rat (200-250 g) receives an interplantar injection of 4 mg/100 μl zymosan into one hind paw. A marked inflammation occurs in this hind paw. Drugs are administered orally for evaluation of efficacy, 30 min. before the inflammatory insult. The hyperalgesia induced by zymosan administration was evaluated using the Randal-Selitto method (Arch. Int. Pharmacodyn., 1957, 111, 409). The quantitation of the analgesic effect is achieved by an analgesimeter, which consist in applying to the inflamed paw an increasing weight (from 130-140 g up to 500 g). The difference in the mechanical pain threshold between the basal value (generally 230-250 g) and the one tolerated by the animals treated with the drug, determined 4 hours after the inflammatory challenge, is defined as mechanical hyperalgesia.
Mechanical hyperalgesia is expressed for the compounds of the invention as maximum percent effect (MPE) which represents the difference (%) in pain threshold between the animals treated with the drug and the controls that received only the vehicle.
Results are reported as MPE (reduction of the nociceptive effect, due to paw loading with increasing weight, in comparison to controls). 100% MPE means that the animal treated with the compound and Zymosan can tolerate the same stimulus (weight) as the control animals which have not received Zymosan treatment. MPE higher than 100% mean that the animal treated with the compound and Zymosan can tolerate stimuli (weight) higher than the control animals, which has not received Zymosan treatment (hypoalgesia).

[2] = tested on: rat model of hyperalgesia induced by carragenine; experiment: Paw pressure test, hyperalgesia induced by carragenine; assay type: in vivo
Description: as §1
The nociceptive threshold in the rat was determined with an analgesimeter, according to the method described by Leighton et al, G. E.; Br. J. Pharmacol. 1988, 93, 553-560. Threshold pressure was measured before and 30, 60 and 120 min after treatment. An arbitrary cut-off value of 250 g was adopted. In order to induce an inflammatory process in the rat paw carrageenan (0.1 ml, 1%) was administered i.p. 4 h before test.

[3] = tested on: rat model of edema induced by carragenine; experiment: Carrageenan-induced paw edema; assay type: in vivo; conditions: 1 h, 60 min, read-out: Edema inhibition 60 min, MPE
Description: as §1
Rats paw volumes were measured using a plethysmometer. Rats received the investigated compounds 4 hours after a 0.1-ml injection of 1.0% carrageenan in the right hind paw. Five hours after the injection of carrageenan (i.e. 1 hour after the administration of the investigated compound), the paw volume of the right hind paw was measured and compared with saline/carrageenan-treated controls. Results are reported as maximum percent effect (MPE), see below for detailed explanation.

[4] = study whether Celecoxib could treat AD; cited from earlier work
[5] = tested on: low-density lipoprotein; conditions: cited from earlier work
[6] = tested on: rat model of edema induced by Zymosan; experiment: Zymosan-induced paw edema; assay type: in vivo; conditions: oral, 3 mg/Kg
Description: as §1, §2
In vivo anti-inflammatory effect exerted by the compounds of the invention can be assessed in the same Zymosan induced inflammation test described above, by measuring the volume of the oedema induced by the inflammatory agent. The oedema was evaluated as the increase in the volume of the Zymosan injected paw within a time of 0-2 hrs. The measurements of the variation of the oedema volume of the paw were recorded using hydroplethysmometer. Results are expressed as MPE, maximum percent effect, that in this case represents the reduction (%) in the oedema of treated animals in comparison to controls (animals treated with Zymosan, which received only the vehicle).

[7] = tested on: mouse abdominal constriction (writhing); experiment: Mouse abdominal constriction test (acetic acid 0.6%), writhing test; assay type: in vivo; conditions: mice, 30 min before test, control 38.1 ± 2.6
Description: as §1
Mice were injected i.p. with a 0.6% solution of acetic acid (10 ml/kg), according to Koster et al. Fed. Proc., 1959, 18, 412. The number of stretching movements was counted for 10 min, starting 5 min after acetic acid injection.

[8] = target: T1, COX-2 (Mus musculus, UniProt Q05769); experiment: Assessment of COX-2 activity in LPS-stimulated J774 cells (PGE2 radioimmunoassay); assay type: cell-based, murine; conditions: Table 2, Formula Ia
T1 construct: lipopolysaccharide (LPS, 10 μg/mL) to induce COX-2; endogenous in cells; host or cells: J774 murine monocyte/macrophage cell line, LPS-stimulated
T1 sequence (Q05769 18-604): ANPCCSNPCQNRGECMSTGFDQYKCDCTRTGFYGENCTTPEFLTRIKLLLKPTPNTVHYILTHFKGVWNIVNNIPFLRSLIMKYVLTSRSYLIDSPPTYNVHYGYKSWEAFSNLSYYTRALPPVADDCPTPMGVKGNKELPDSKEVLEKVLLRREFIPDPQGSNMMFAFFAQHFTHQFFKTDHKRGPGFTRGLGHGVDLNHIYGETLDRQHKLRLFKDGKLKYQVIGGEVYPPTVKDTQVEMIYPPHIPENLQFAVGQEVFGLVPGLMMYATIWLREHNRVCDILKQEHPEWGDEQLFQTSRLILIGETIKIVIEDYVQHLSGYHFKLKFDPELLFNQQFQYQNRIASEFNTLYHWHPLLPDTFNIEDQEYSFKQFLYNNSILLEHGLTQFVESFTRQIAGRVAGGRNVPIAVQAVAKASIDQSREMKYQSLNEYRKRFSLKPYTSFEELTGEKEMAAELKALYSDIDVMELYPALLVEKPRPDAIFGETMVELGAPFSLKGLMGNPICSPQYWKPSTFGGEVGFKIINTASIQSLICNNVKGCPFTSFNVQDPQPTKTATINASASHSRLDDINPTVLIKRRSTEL
Description: Cells were stimulated for 24 h with E. coli lipopolysaccharide (LPS, 10 μg/mL) to induce COX-2, in the absence or presence of test compounds, at the concentrations previously reported. The supernatants were collected for the measurement of PGE2 by radioimmunoassay.
Analysis. Throughout the time the experiments lasted, triplicate wells were used for the various conditions of treatment. Results are expressed as the mean, for 3 experiments, of the % inhibition of PGE2 production by test compounds with respect to control samples. Data fit was obtained using the sigmoidal dose-response equation (variable slope). The IC50 were calculated by GraphPad Instat program (GraphPad software).

[9] = VIGOR trial; cited from earlier work
[10] = tested on: glaucomatous rabbits; conditions: not COX-2 dependent effect; cited from earlier work
[11] = 0.5 h, 30 min, read-out: Analgesia 30 min MPE
[12] = 1 h, 60 min, read-out: Analgesia 60 min MPE

SMILES	melting point [°C]	COX-1/COX-2 Selectivity Index (IC50 ratio) [8]	inhibition in vivo at 20 mg/kg [2, 11] [%]	inhibition in vivo at 20 mg/kg [2, 12] [%]	inhibition in vivo at 20 mg/kg [3] [%]	Number of writhes ([7]; 20 mg/Kg s.c.)	also measured
Cc1ccc(-c2cc(C(F)(F)F)nn2-c2ccc(S(N)(=O)=O)cc2)cc1 [Celecoxib]			73	81	95		Analgesia 0-2 hrs MPE [1]: 30%; Analgesia 0-6 hrs MPE [1]: 35%; incidence of heart attack in the treated group in comparison to placebo [4]: four times higher; susceptibility of low-density lipoprotein to oxidative modifications [5]: had no effect; Edema 0-6 hrs MPE [6]: 24.8%
Cc1c(CC(=O)OC(C)C)cc(-c2ccc(S(C)(=O)=O)cc2)n1-c1ccc(F)c(F)c1 [Example 2, Isopropyl[1-(3,4-difluoro)phenyl-2-methyl-5-(4-methylsulphonyl)phenyl-1H-pyrrol-3-yl]acetate]	143	>4700	100	70	91	21.5 ± 3.9	
COc1ccc(-n2c(-c3ccc(S(C)(=O)=O)cc3)cc(CC(=O)OC(C)C)c2C)cc1 [Example 3, Isopropyl[1-(4-methoxy)phenyl-2-methyl-5-(4-methylsulphonyl)phenyl-1H-pyrrol-3-yl]acetate]	138	>4500	67	90	77	18.5 ± 3.5	
CCCCOC(=O)Cc1cc(-c2ccc(S(C)(=O)=O)cc2)n(-c2ccc(F)c(F)c2)c1C [Example 5, n-Butyl[1-(3,4-difluoro)phenyl-2-methyl-5-(4-methylsulphonyl)phenyl-1H-pyrrol-3-yl]acetate]	112	>3300	76	100	74	13.7 ± 4.0	
Cc1onc(-c2ccccc2)c1-c1ccc(S(N)(=O)=O)cc1 [Valdecoxib]							effect on intraocular pressure [10]: reduce intraocular pressure

The next lines start with results.

melting point [°C]	COX-1/COX-2 Selectivity Index (IC50 ratio) [8]	SMILES	inhibition in vivo at 20 mg/kg [2, 11] [%]	inhibition in vivo at 20 mg/kg [2, 12] [%]	inhibition in vivo at 20 mg/kg [3] [%]	Number of writhes ([7]; 20 mg/Kg s.c.)	also measured
160		Cc1c(CC(=O)OC(C)C)cc(-c2ccc(S(C)(=O)=O)cc2)n1-c1ccccc1 [Example 1, Isopropyl[2-methyl-5-(4-methylsulphonyl)phenyl-1-phenyl-1H-pyrrol-3-yl]acetate]					Analgesia 0-2 hrs MPE [1]: 75%; Analgesia 0-6 hrs MPE [1]: 70%; inhibition in vivo at 5 mg/kg [2, 11]: 80%; inhibition in vivo at 5 mg/kg [2, 12]: 60%; inhibition in vivo at 5 mg/kg ([3]; 5 mg/Kg): 100%; Edema 0-2 hrs MPE [6]: 20%; Edema 0-6 hrs MPE [6]: 15%; Number of writhes ([7]; 5 mg/Kg s.c.): 28.5 ± 3.3
100	>2300	Cc1c(CC(=O)OC(C)C)cc(-c2ccc(S(C)(=O)=O)cc2)n1-c1cccc(F)c1 [Example 4, Isopropyl[1-(3-fluoro)phenyl-2-methyl-5-(4-methylsulphonyl)phenyl-1H-pyrrol-3-yl]acetate]	84	80	87	17.7 ± 2.9	
	>800	CS(=O)(=O)c1ccc(C2=C(c3ccccc3)C(=O)OC2)cc1 [Rofecoxib]					incidence of acute myocardial infarction, Rofecoxib arm compared with the Naproxen arm [9]: five-fold increase; effect on intraocular pressure [10]: had no effect; susceptibility of low-density lipoprotein to oxidative modifications [5]: increases susceptibility
